How the values were obtained:
[1] = test system: DMBA-induced rat mammary carcinoma; experiment: DMBA-induced rat mammary carcinoma model; type: in vivo; details: initial tumor weight = 100%
Source text: • In vivo Experiment: DMBA-induced rat mammary carcinoma model • Experimental Animal: Sprague-Dawley rat, female • Procedure: The mammary carcinoma was induced by a single oral dose of DMBA. The animals received perifosine from day 0 to day 14 and were observed up to day 42. The weight of the tumor mass was estimated by palpation and comparison with plastic models.
• In vivo Experiment: DMBA-induced rat mammary carcinoma model • Experimental Animal: Sprague-Dawley rat, female • Procedure: The mammary carcinoma was induced by a single oral dose of DMBA. The animals received perifosine from day 0 to day 14 and were observed up to day 42. The eight of the tumor was mass was estimated by palpation and comparison with plastic models.

tumor cells = details: Patel et al. 2002; cited from earlier work
[2] = Example 3, female Sprague-Dawley rat, Perifosine 14×6.81 mg/kg p.o., Adriamycin 4×2.15 mg/kg i.p.
[3] = Example 1, female Sprague-Dawley rat, Perifosin 14×6.81 mg/kg p.o., Cis-platinum 4×1 mg/kg i.p.
[4] = Example 2, female Sprague-Dawley rat, Perifosine 14×6.81 mg/kg p.o., Cyclophosphamide 100 mg/kg i.v.

Row | Structure (SMILES) | Day 21, Change in % (tumor weight) [1, 2] [%] | cell cycle block (tumor cells) | Day 21, Change in % (tumor weight) [1, 3] [%] | Day 21, Change in % (tumor weight) [1, 4] [%]
1 | COc1cccc2c1C(=O)c1c(O)c3c(c(O)c1C2=O)C[C@@](O)(C(=O)CO)C[C@@H]3O[C@H]1C[C@H](N)[C@H](O)[C@H](C)O1 [Adriamycin, reference compound] | 781 | – | – | –
2 | CCCCCCCCCCCCCCCCCCOP(=O)([O-])OC1CC[N+](C)(C)CC1 [Perifosin (D-21266), perifosine] | −25 | blocks tumor cells in the G1-S and G2-M phase of the cell cycle | −25 | −25
3 | O=P1(N(CCCl)CCCl)NCCCO1 (stereo not shown) [Cyclophosphamide, reference compound] | – | – | – | 500
4 | N.N.[Cl][Pt][Cl] [Cis-platinum, reference compound] | – | – | 410 | –
